The data set concerns rat chronic carcinogenicity bioassay, TD50. The data set can be described thus: DSSTox (CPDBAS) Carcinogenic Potency Database Summary Rat Bioassay Results. The settings on record: for Potency: stronger effect = lower value. In a few lines: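 Chronic long-term rat cancer bioassays from literature and NCI/NTP, taking the most positive result per sex. TD50 in mmol converted to a 1–100 Activity Score from log10(1/TD50). Mixtures lacking TD50 scored 50.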

[1] abbreviates: TD50_Rat_Note: no positive results, TargetSites_Rat_Female: no positive results.
Setting [2] is: TD50_Rat_Note: TD50 is harmonic mean of more than one positive test, TargetSites_Rat_Female: stomach.
[3] abbreviates: TargetSites_Rat_Female: no positive results.

Active and inactive are the calls of the source.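 The calls were made as follows: active = at least one rat sex group has a carcinogenic potency value and tumor site recorded; inconclusive = only rat studies were judged inadequate by the national testing program; inactive = no potency or tumor site, with negative rat experiments.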

Consider `CCCCOC(=O)c1ccccc1C(=O)OCc1ccccc1`, for which the Potency (TargetSites_Rat_Female: no positive results- CPDB evaluation based on NCI Technical Report) was determined as 1040 mg/kg/day. Consider `CCc1cc(C(N)=S)ccn1`, for which, under setting [1], the outcome is “inactive; no positive results”. With `C=CC1CC=CCC1` (stereo unspecified), the outcome (TD50_Rat_Note: only experiment is NCI/NTP bioassay inadequate, TargetSites_Rat_Female: NTP bioassay inadequate) is “ntp bioassay inadequate”. For `O=C1CCCCCN1`, under setting [1], the outcome was “inactive; no positive results”. The same measure, in the same setting: as for `CC(C)C(C(=O)OC(C#N)c1cccc(Oc2ccccc2)c1)c1ccc(Cl)cc1` (stereo unspecified), the entry is “inactive; no positive results”. Consider `CC(C)(C)NCC(O)c1ccc(O)c(CO)c1` (stereo unspecified), for which, for the setting “TD50_Rat_Note: TD50 is harmonic mean of more than one positive test, TargetSites_Rat_Female: mesovarium”, the Potency is 40 mg/kg/day.

For the compound `O=[N+]([O-])c1cccc2cccnc12`, the Potency under setting [2] was 9.82 mg/kg/day. With `CCN(Cc1cccc(S(=O)(=O)O)c1)c1ccc(C(=C2C=CC(=[N+](CC)Cc3cccc(S(=O)(=O)O)c3)C=C2)c2ccc(O)cc2S(=O)(=O)[O-])cc1`, under setting [1], the outcome is “inactive; no positive results”.

Consider `CN(C)c1ccccc1`, for which the Potency under setting [3] was 125 mg/kg/day. For the compound `O=C(O)CC(O)(CC(=O)O)C(=O)O`, the outcome (TD50_Rat_Note: no positive results) is “inactive; no positive results”. In the case of `O=C1c2cccc(O)c2C(=O)c2c(O)cccc21`, the Potency was 245 mg/kg/day.

As to `O=P(=O)O`, the outcome under setting [1] was “inactive; no positive results”. As to `CC1=C(/C=C/C(C)=C/C=C/C(C)=C/C(=O)O)C(C)(C)CCC1`, the outcome under setting [1] was “inactive; no positive results”. As for `O=CNc1nc(-c2ccc([N+](=O)[O-])o2)cs1`, the Potency (TD50_Rat_Note: TD50 is harmonic mean of more than one positive test, harmonic mean of TD50 includes a value for upper 99% confidence li, TargetSites_Rat_Female: urinary bladder) was 4.25 mg/kg/day. For the compound `Cl/C=C/CCl`, the Potency is 94 mg/kg/day under setting [2] and 100 mg/kg/day under setting [1]. With `C[C@@H]1C/C=C/C=C/C=C/C=C/[C@H](O[C@@H]2O[C@H](C)[C@@H](O)[C@H](N)[C@@H]2O)C[C@@H]2O[C@](O)(C[C@@H](O)C[C@H]3O[C@@H]3/C=C/C(=O)O1)C[C@H](O)[C@H]2C(=O)O`, the outcome under setting [1] was “inactive; no positive results”.

As for `c1ccc2occc2c1`, the Potency (TargetSites_Rat_Female: kidney) was 424 mg/kg/day. On to `O=c1[nH]nc(-c2ccc([N+](=O)[O-])o2)o1`, for which the Potency (TargetSites_Rat_Female: all tumor bearing animals) was 8.61 mg/kg/day. For `CN(CCCC(O)c1cccnc1)N=O` (stereo unspecified), the Potency was 0.103 mg/kg/day.

As for `Cc1ccc2c(c1)C(N1CCN(C)CC1)=Nc1ccccc1S2`, the outcome under setting [1] was “inactive; no positive results”. With `CCN(CC)c1ccc(N=Nc2cc[n+]([O-])cc2)cc1`, for the setting “TD50_Rat_Note: TD50 value is overestimated as upper 99% confidence limit from study with 100% tumor incidence but no lifetable, harmoni”, the Potency is 1.63 mg/kg/day. In the case of `C[C@H]1CCCCN1N=O`, the Potency (TargetSites_Rat_BothSexes: nervous system) is 13.2 mg/kg/day. Regarding `CN(C)C(=O)Nc1cccc(C(F)(F)F)c1`, the outcome under setting [1] is “inactive; no positive results”. Same read-out and setting: then `CN(N=O)c1cccnc1`, with “inactive”. Turning to `CCn1cc(C(=O)O)c(=O)c2cc3c(cc21)OCO3`, under setting [3], the Potency was 167 mg/kg/day.

Source of the values: PubChem BioAssay AID1208 (EPA DSSTox, 2008).
